Settings: for mass density: Fluid (supercritical or subcritical phases), Vibrating tube method

C=C(C)C [2-methylpropene]
Settings	Critical density [kg/m3]	mass density [kg/m3]	vapor or sublimation pressure [kPa]
388.24 K, 14986 kPa	–	509.22	–
388.24 K, 19997 kPa	–	523.66	–
388.24 K, 25009 kPa	–	535.55	–
388.24 K, 29994 kPa	–	545.71	–
388.24 K, 35003 kPa	–	554.67	–
393.24 K, 3122 kPa	–	430.77	–
393.24 K, 4982 kPa	–	451.26	–
393.24 K, 9992 kPa	–	482.81	–
393.24 K, 14983 kPa	–	502.79	–
393.24 K, 20002 kPa	–	518.03	–
393.24 K, 25003 kPa	–	530.42	–
393.24 K, 29986 kPa	–	540.94	–
393.24 K, 34999 kPa	–	550.22	–
393.36 K, Liquid	–	–	2656.5
398.24 K, 3358 kPa	–	417.5	–
398.24 K, 4991 kPa	–	439.31	–
398.24 K, 10000 kPa	–	474.88	–
398.24 K, 15001 kPa	–	496.33	–
398.24 K, 19996 kPa	–	512.31	–
398.24 K, 24996 kPa	–	525.25	–
398.24 K, 30012 kPa	–	536.21	–
398.24 K, 35008 kPa	–	545.78	–
399.86 K, Liquid	–	–	2967.1
403.24 K, 3596 kPa	–	402.69	–
403.24 K, 4988 kPa	–	426.04	–
403.24 K, 14999 kPa	–	489.7	–
403.24 K, 19992 kPa	–	506.53	–
403.24 K, 24997 kPa	–	520.05	–
403.24 K, 30004 kPa	–	531.43	–
403.24 K, 34985 kPa	–	541.26	–
403.25 K, 9993 kPa	–	466.62	–
408.24 K, 3850 kPa	–	386.28	–
408.24 K, 4991 kPa	–	411.13	–
408.24 K, 14992 kPa	–	482.94	–
408.24 K, 19999 kPa	–	500.74	–
408.24 K, 24999 kPa	–	514.84	–
408.24 K, 30000 kPa	–	526.63	–
408.25 K, 9982 kPa	–	458.05	–
408.25 K, 34995 kPa	–	536.8	–
412.88 K, Liquid	–	–	3665.8
413.24 K, 4118 kPa	–	367.6	–
413.24 K, 30005 kPa	–	521.83	–
413.24 K, 35003 kPa	–	532.34	–
413.25 K, 4983 kPa	–	393.59	–
413.25 K, 9996 kPa	–	449.33	–
413.25 K, 14993 kPa	–	476.09	–
413.25 K, 19996 kPa	–	494.87	–
413.25 K, 24999 kPa	–	509.59	–
418.24 K, 4397 kPa	–	346.27	–
418.24 K, 4989 kPa	–	372.46	–
418.24 K, 14988 kPa	–	469.1	–
418.24 K, 19991 kPa	–	488.93	–
418.24 K, 24993 kPa	–	504.3	–
418.25 K, 9999 kPa	–	440.27	–
418.25 K, 30007 kPa	–	517.01	–
418.25 K, 34986 kPa	–	527.81	–
423.24 K, 5018 kPa	–	345.72	–
423.24 K, 19992 kPa	–	482.96	–
423.24 K, 30010 kPa	–	512.18	–
423.25 K, 9984 kPa	–	430.4	–
423.25 K, 14989 kPa	–	462	–
423.25 K, 25000 kPa	–	499.02	–
423.25 K, 34992 kPa	–	523.34	–
423.25 K, 39996 kPa	–	533.35	–
428.24 K, 5018 kPa	–	303.01	–
428.24 K, 24987 kPa	–	493.65	–
428.24 K, 34996 kPa	–	518.85	–
428.25 K, 9990 kPa	–	420.58	–
428.25 K, 14983 kPa	–	454.76	–
428.25 K, 19986 kPa	–	476.9	–
428.25 K, 30000 kPa	–	507.31	–
433.24 K, 5019 kPa	–	233.56	–
433.25 K, 9991 kPa	–	410.25	–
433.25 K, 14996 kPa	–	447.46	–
433.25 K, 19984 kPa	–	470.79	–
433.25 K, 24991 kPa	–	488.3	–
433.25 K, 30001 kPa	–	502.44	–
433.25 K, 34994 kPa	–	514.34	–
438.25 K, 5019 kPa	–	183.56	–
438.25 K, 9997 kPa	–	399.54	–
438.25 K, 14998 kPa	–	440.02	–
438.25 K, 19984 kPa	–	464.66	–
438.25 K, 24988 kPa	–	482.93	–
438.25 K, 30000 kPa	–	497.59	–
438.25 K, 34992 kPa	–	509.86	–
443.25 K, 5019 kPa	–	159.03	–
443.25 K, 9994 kPa	–	388.26	–
443.25 K, 14989 kPa	–	432.39	–
443.25 K, 20002 kPa	–	458.54	–
443.25 K, 24984 kPa	–	477.51	–
443.25 K, 29996 kPa	–	492.7	–
443.25 K, 34994 kPa	–	505.36	–
448.25 K, 5018 kPa	–	144.08	–
448.25 K, 9996 kPa	–	376.53	–
448.25 K, 14997 kPa	–	424.77	–
448.25 K, 19999 kPa	–	452.29	–
448.25 K, 24998 kPa	–	472.14	–
448.25 K, 29994 kPa	–	487.82	–
448.25 K, 35009 kPa	–	500.91	–
453.25 K, 5016 kPa	–	133.47	–
453.25 K, 9986 kPa	–	364.19	–
453.25 K, 14989 kPa	–	416.85	–
453.25 K, 19999 kPa	–	446.01	–
453.25 K, 25000 kPa	–	466.69	–
453.25 K, 29993 kPa	–	482.93	–
453.25 K, 35004 kPa	–	496.39	–
458.25 K, 5017 kPa	–	125.47	–
458.25 K, 9993 kPa	–	351.66	–
458.25 K, 14983 kPa	–	408.65	–
458.25 K, 19987 kPa	–	439.63	–
458.25 K, 25004 kPa	–	461.27	–
458.25 K, 29988 kPa	–	478.03	–
458.25 K, 34987 kPa	–	491.88	–
463.25 K, 5016 kPa	–	119.04	–
463.25 K, 9981 kPa	–	338.41	–
463.25 K, 14994 kPa	–	400.72	–
463.25 K, 19983 kPa	–	433.24	–
463.25 K, 25001 kPa	–	455.8	–
463.25 K, 29987 kPa	–	473.13	–
463.25 K, 34998 kPa	–	487.42	–
463.25 K, 39991 kPa	–	499.76	–
468.25 K, 5015 kPa	–	113.61	–
468.25 K, 9993 kPa	–	325.38	–
468.25 K, 14991 kPa	–	392.57	–
468.25 K, 19999 kPa	–	426.94	–
468.25 K, 24992 kPa	–	450.29	–
468.25 K, 29998 kPa	–	468.26	–
468.25 K, 34985 kPa	–	482.91	–
473.25 K, 5018 kPa	–	109.13	–
473.25 K, 9986 kPa	–	311.87	–
473.25 K, 14992 kPa	–	384.37	–
473.25 K, 20001 kPa	–	420.52	–
473.25 K, 24988 kPa	–	444.78	–
473.25 K, 29996 kPa	–	463.37	–
473.25 K, 34999 kPa	–	478.46	–
478.25 K, 5019 kPa	–	105.12	–
478.25 K, 9988 kPa	–	298.62	–
478.25 K, 14996 kPa	–	376.12	–
478.25 K, 19999 kPa	–	414.08	–
478.25 K, 24987 kPa	–	439.29	–
478.25 K, 30005 kPa	–	458.51	–
478.25 K, 34997 kPa	–	474	–
483.25 K, 5019 kPa	–	101.57	–
483.25 K, 9988 kPa	–	285.6	–
483.25 K, 14984 kPa	–	367.69	–
483.25 K, 19990 kPa	–	407.57	–
483.25 K, 24996 kPa	–	433.89	–
483.25 K, 29989 kPa	–	453.63	–
483.25 K, 35003 kPa	–	469.59	–
488.24 K, 4981 kPa	–	97.35	–
488.24 K, 20000 kPa	–	401.24	–
488.25 K, 9987 kPa	–	273.08	–
488.25 K, 14983 kPa	–	359.4	–
488.25 K, 24997 kPa	–	428.38	–
488.25 K, 30002 kPa	–	448.75	–
488.25 K, 35005 kPa	–	465.15	–
493.24 K, 4981 kPa	–	94.56	–
493.24 K, 9988 kPa	–	261.21	–
493.24 K, 14986 kPa	–	351.12	–
493.24 K, 19989 kPa	–	394.84	–
493.24 K, 24992 kPa	–	422.89	–
493.24 K, 30006 kPa	–	443.91	–
493.24 K, 35002 kPa	–	460.71	–
498.24 K, 5019 kPa	–	92.91	–
498.24 K, 19995 kPa	–	387.94	–
498.24 K, 30000 kPa	–	439.07	–
498.25 K, 9984 kPa	–	249.88	–
498.25 K, 14995 kPa	–	342.92	–
498.25 K, 24992 kPa	–	417.4	–
498.25 K, 34999 kPa	–	456.28	–
503.24 K, 4997 kPa	–	90.01	–
503.24 K, 9991 kPa	–	239.72	–
503.24 K, 14990 kPa	–	334.64	–
503.24 K, 19984 kPa	–	381.57	–
503.24 K, 24988 kPa	–	411.94	–
503.24 K, 30005 kPa	–	434.24	–
503.24 K, 34991 kPa	–	451.87	–
503.24 K, 39995 kPa	–	466.57	–
508.24 K, 5016 kPa	–	88.26	–
508.24 K, 9990 kPa	–	230.13	–
508.24 K, 14990 kPa	–	326.56	–
508.24 K, 19994 kPa	–	375.29	–
508.24 K, 24991 kPa	–	406.52	–
508.24 K, 30000 kPa	–	429.41	–
508.24 K, 34996 kPa	–	447.5	–
508.24 K, 39992 kPa	–	462.51	–
513.24 K, 5016 kPa	–	86.21	–
513.24 K, 9990 kPa	–	221.29	–
513.24 K, 14992 kPa	–	318.59	–
513.24 K, 19996 kPa	–	368.96	–
513.24 K, 24989 kPa	–	401.13	–
513.24 K, 30003 kPa	–	424.62	–
513.24 K, 35008 kPa	–	443.17	–
513.24 K, 39996 kPa	–	458.53	–
518.23 K, 5016 kPa	–	84.36	–
518.24 K, 9992 kPa	–	213.29	–
518.24 K, 14986 kPa	–	310.73	–
518.24 K, 19995 kPa	–	362.67	–
518.24 K, 24992 kPa	–	395.78	–
518.24 K, 29993 kPa	–	419.86	–
518.24 K, 34991 kPa	–	438.82	–
518.24 K, 39999 kPa	–	454.51	–
523.23 K, 5019 kPa	–	82.65	–
523.23 K, 9982 kPa	–	205.67	–
523.23 K, 14990 kPa	–	303.2	–
523.23 K, 19986 kPa	–	356.38	–
523.23 K, 24989 kPa	–	390.45	–
523.23 K, 29998 kPa	–	415.17	–
523.23 K, 39987 kPa	–	450.55	–
523.24 K, 34992 kPa	–	434.55	–
Liquid, visual observation in a variable volume cell:FP	233.97	–	–

Liquid
Settings	Critical pressure [kPa]	Critical temperature [K]
–	4009.8	418.09

— the NIST ThermoML archive (doi:10.1016/j.fluid.2004.09.013)
